Assay results from ChEMBL document CHEMBL6127107, “Oleanolic acid derivatives against drug-resistant bacteria and fungi by multi-targets to avoid drug resistance” (Eur J Med Chem, 2024).
Values after ≈ are worked out from the molar mass of the structure shown. Active and inactive are the calls of the source. No cut-off for these calls is given here.

Tests used:
Staphylococcus aureus [1] = experiment: Antimicrobial activity against methicillin-resistant Staphylococcus aureus 011; type: functional
Staphylococcus aureus [2] = experiment: Synergistic antibacterial activity against methicillin-resistant Staphylococcus aureus assessed as fractional inhibitory concentration index in presence of fluconazole; type: functional
Staphylococcus aureus [3] = experiment: Antibacterial activity against methicillin-resistant Staphylococcus aureus infected in cyclophosphamide-injected Kunming mouse model of skin wound infection assessed as wound repair by measuring reduction in wound area at 2 to 4 mg/kg measured for 7 days by photographic analysis; type: functional, organism-based; details: dose 2-4 mg/kg, time 7.0 day
DNA [4] = experiment: Binding affinity to methicillin-resistant Staphylococcus aureus DNA assessed as inhibition of DNA migration at 75 microg/ml by electrophoretic analysis; type: nucleic-acid assay; details: dose 75.0 µg/ml
Staphylococcus aureus [5] = experiment: Antibacterial activity against methicillin-resistant Staphylococcus aureus infected in cyclophosphamide-injected Kunming mouse model of skin wound infection assessed as reduction in bacterial load in skin at 1 mg/kg measured after 7 days; type: functional; details: time 7 day
Cell membrane [6] = experiment: Disruption of cell membrane integrity in methicillin-resistant Staphylococcus aureus assessed as increase in ROS level at 2 to 8 times of MIC incubated for 1 hrs; type: subcellular
Cell membrane [7] = experiment: Disruption of cell membrane integrity in methicillin-resistant Staphylococcus aureus assessed as increase in PI fluorescence at 2 to 8 times of MIC by PI staining based fluorescence analysis; type: subcellular
DNA [8] = experiment: Binding affinity to methicillin-resistant Staphylococcus aureus DNA assessed as effect on helical structure by measuring change in positive and negative peaks at 10 to 40 microg/ml by CD spectra; type: nucleic-acid assay; details: dose 10-40 µg/ml
Staphylococcus aureus [9] = experiment: Synergistic antibacterial activity against methicillin-resistant Staphylococcus aureus assessed as fractional inhibitory concentration index in presence of norfloxacin; type: functional, organism-based
Staphylococcus aureus [10] = experiment: Antibacterial activity against methicillin-resistant Staphylococcus aureus infected in cyclophosphamide-injected Kunming mouse model of skin wound infection assessed as reduction in skin lesions at 1 to 4 mg/kg administered for 7 days and measured on day 8 by H and E staining based analysis; type: functional, organism-based; details: dose 1-4 mg/kg, time 8.0 day
Staphylococcus aureus [11] = experiment: Selectivity ratio of MBEC for methicillin-resistant Staphylococcus aureus to MIC for methicillin resistant Staphylococcus aureus; type: functional

CC(=O)O[C@H]1CC[C@]2(C)[C@H]3CC=C4[C@@H]5CC(C)(C)CC[C@]5(C(=O)NCCCNC(=N)N)CC[C@@]4(C)[C@]3(C)CC[C@H]2C1(C)C was tested, and the MIC (Staphylococcus aureus [1]) was 2 µg/mL (≈ 3.35 µM), the Activity (Staphylococcus aureus [2]) was “Active” and the Activity (Staphylococcus aureus [3]) was “Active”. For the same compound, the Activity (DNA [4]) was “Active”, the Activity (Staphylococcus aureus [5]) was 0.97 log10CFU/mg and the Activity (Cell membrane [6]) was “Active”. The Activity (Cell membrane [7]) was “Active”, the Activity (DNA [8]) was “Active” and the Activity (Staphylococcus aureus [9]) was “Active”. The Activity (Staphylococcus aureus [10]) was “Active” and the selectivity ratio (Staphylococcus aureus [11]) was 16.
